Measured values taken from patent US20040121410A1, “Pain signaling molecules” (priority 2002, published 2004).
“Also recorded” adds a separate entry of the source. Where two headings read alike, the source gives them in different places. Where a SMILES comes first, the peptide text is derived from it. Where no end group is shown, it is not given here. [ ]: non-standard residue; d: D form. pGlu = O=C1CC[C@@H](C(=O)O)N1

What was measured:
MrgA1 = target: T1, MrgA1 (Mus musculus, UniProt Q91WW5); assay: calcium-mobilization assay (FLEXstation, Fura-2/AM) in HEK-MrgA1 cells; format: cell-based
T1 construct: expressed in transfected cells
T1 sequence (Q91WW5 1-304): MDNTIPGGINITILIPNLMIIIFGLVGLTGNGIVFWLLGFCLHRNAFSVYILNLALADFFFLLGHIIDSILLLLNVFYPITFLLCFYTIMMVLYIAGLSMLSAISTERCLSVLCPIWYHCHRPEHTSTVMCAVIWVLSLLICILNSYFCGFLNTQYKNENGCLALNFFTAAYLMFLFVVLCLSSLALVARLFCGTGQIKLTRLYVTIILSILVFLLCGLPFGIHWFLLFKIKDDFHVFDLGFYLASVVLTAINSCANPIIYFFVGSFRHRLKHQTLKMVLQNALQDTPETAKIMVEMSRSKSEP
Procedure: (§1) To address the questions of the ligand selectivity of the MrgC11 receptor, human embryonic kidney (HEK) 293 cells stably expressing either MrgA1 or MrgC11 were established. Neuropeptides were screened to identify ligands and agonists.
(§2) HEK293 cells were transfected with cDNA encoding the MrgAl-GFP, mNPFF2-GFP or MrgC11-GFP in pcDNA3.1/Zio(+) plasmid (Invitrogen) using the FuGENE6 transfection reagent (Roche Molecular Biomolecules). The transfected cells were selected with 400 μg/ml zeocin in DMEM supplemented with 10% FBS. Each cloned cell was further selected for membrane localization of receptor-GFP fusion protiens.
(§3) The selected cells were maintained in the same medium supplemented with 200 μg/ml zeocin. The stable cell lines were designated HEK-MrgA1, HEK-NPFF2 and HEK-MrgC11.
(§4) To identify putative ligands for MrgC11 and MrgA1 receptors, HEK-MrgC11 or HEKMrgA1 stable cell lines were screened in a calcium-mobilization assay using a fluorescence-imaging plate reader (FLEXstation). Briefly, HEK-MrgA1 or HEK-MrgC11 were plated in 96-black-well plates (Corning) and grown to confluence. After incubation with Fura-2/AM for >20 min, cells were washed and equilibrated for 20 min with HBSS (Hanks' balanced salt solution) assay buffer. The fluorescence emission caused by intracellular calcium mobilization elicited by agonists was determined by using a fluorometric imaging plate reader, Flexstation (Molecular Devices). All peptides were from Phoenix Pharmaceuticals (St. Joseph, Mo.), Bachem, American Peptide (Sunnyvale, Calif.), or Sigma.

MrgC11 = target: T2, MrgC11 (Mus musculus, UniProt Q8CIP3); assay: calcium-mobilization assay (FLEXstation, Fura-2/AM) in HEK-MrgC11 cells; format: cell-based; details: for activation of MrgC11 (in words): calcium response
T2 construct: A full-length MrgC11 cDNA was cloned from the newborn DRG cDNA library; expressed in transfected cells
T2 sequence (Q8CIP3 1-322): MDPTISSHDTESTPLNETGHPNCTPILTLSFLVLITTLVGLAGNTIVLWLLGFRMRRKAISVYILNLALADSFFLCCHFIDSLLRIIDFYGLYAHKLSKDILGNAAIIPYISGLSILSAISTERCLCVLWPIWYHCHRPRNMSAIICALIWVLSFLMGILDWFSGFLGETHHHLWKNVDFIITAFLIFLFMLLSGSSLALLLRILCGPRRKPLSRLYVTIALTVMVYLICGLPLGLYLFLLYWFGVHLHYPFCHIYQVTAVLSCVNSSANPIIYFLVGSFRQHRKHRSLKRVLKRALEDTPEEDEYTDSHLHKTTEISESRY
Procedure: as §1, §2, §3, §4

[1] = tested on: γ2-MSH-induced calcium release in HEK-MrgC11; assay: γ2-MSH-induced [Ca2+]i response in HEK-MrgC11 with pathway inhibitors; format: cell-based, human; details: HEK-MrgC11, 1 μM γ2-MSH; 10 μM U73122 or U73343 10 min pretreatment; 1 μM TG in 2 mM EGTA
Procedure: (§5) Cells loaded with Fura-2/AM were stimulated with each agonist and fluorescence was recorded. Graphs represent an average plot of [Ca^2+]i measurements versus time (in s) in a minimum of 8 cells from representative experiments. Individual data points represent images taken at 0.8-s intervals. […] After a 10 minute pretreatment with U73122 and U73343, each agonist was added. FIGS. 2B and E show the extracellular [Ca^2+] dependency of Ca^2+ mobilization. Cells were preincubated for 2 minutes with 2 mM EGTA (open circles) or normal medium containing 1.2 mM calcium (closed circles) and then 3 μM FLRFa or 1 μM γ2-MSH was added. […] In the presence of 2 mM EGRA, TG (1 μM final concentration) was added to deplete internal Ca^2+ stores.
(§6) The calcium source responsible for the initial peak in [Ca^2+]i was determined by depleting internal calcium stores with the application of 1 μM TG (FIGS. 2C and F).
(§7) Heterotrimeric G proteins of the Gαi and Gαq class are involved in the propagation of signals from GPCRs leading to [Ca^2+]i elevation (Guderman et al. Ann. Rev. Pharmacol. Toxicol. 36:429-459 (1996)). To determine whether Gαi/o proteins are involved in the [Ca^2+]i response, we pretreated HEK-MrgA1 or HEK-MrgC11 cells with PTX (100 ng/ml) for 16 h. […] The dose dependency in [Ca^2+]i responses for both receptors were not affected by PTX (FIGS. 4A and D).

[2] = tested on: FLRFa-induced calcium release in HEK-MrgA1; assay: FLRFa-induced [Ca2+]i response in HEK-MrgA1 with pathway inhibitors; format: cell-based, human; details: HEK-MrgA1, 3 μM FLRFa; 10 μM U73122 or U73343 10 min pretreatment; 1 μM TG in 2 mM EGTA
Procedure: as §5, §6, §7

[3] = Table 1, HEK-MrgC11 cells, FLEXstation assay, means ± SEM, triplicate, Inactive = no activation detected at concentrations up to 10 mM, read-out: EC50 MrgC11
[4] = Table 1, HEK-MrgA1 cells, FLEXstation assay, means ± SEM, triplicate, Inactive = no activation detected at concentrations up to 10 mM
[5] = Table 2, chirally modified FMRFa peptides, HEK-MrgA1 cells, mean ± SEM, triplicate, read-out: EC50 MrgA1
[6] = Table 2, chirally modified FMRFa peptides, HEK-MrgA1 cells, mean ± SEM, triplicate
[7] = Table 2, chirally modified FMRFa peptides, HEK-MrgC11 cells, mean ± SEM, triplicate, read-out: EC50 MrgC11

Compound | EC50 (MrgC11; [3]) | EC50 MrgA1 (MrgA1; [4]) | EC50 (MrgC11) | other results
VGRPEWWMDYQKRY-NH2 [BAM-15-amide] | 479 ± 14 nM | – | – | EC50 (MrgA1; Table 1, HEK-MrgA1 cells, FLEXstation assay, means ± SEM, triplicate, Inactive = no activation detected at concentrations up to 10 mM, read-out: EC50 MrgA1): 8770 nM
YGGFMRF-OH [Met-Enk-RF] | – | Inactive | 545 ± 19 nM | activation of MrgA1 (in words) (MrgA1; HEK-MrgA1 cells, calcium response): complete loss of activity
TPDINPAWYTGRGIRPVGRF-NH2 [PrRP-20] | 144 ± 18 nM | Inactive | – | –
CSCC[C@H](NC(=O)[C@@H](N)Cc1ccccc1)C(=O)N[C@@H](CCCNC(=N)N)C(=O)N[C@H](Cc1ccccc1)C(N)=O [F-M-R-(D)Fa] | – | – | – | EC50 (MrgA1; [5]): 643 ± 80 nM; EC50 MrgC11, nM (MrgC11; Table 2, chirally modified FMRFa peptides, HEK-MrgC11 cells, mean ± SEM, triplicate): Inactive
AGEGLNSQFWSLAAPQRF-NH2 [NPAF] | – | Inactive | 282 ± 30 nM | –
CSCC[C@H](NC(=O)[C@@H](NC(=O)[C@@H](N)Cc1ccc(O)cc1)C(C)C)C(=O)NCC(=O)N[C@@H](Cc1c[nH]cn1)C(=O)N[C@@H](Cc1ccccc1)C(=O)N[C@@H](CCCNC(=N)N)C(=O)N[C@@H](Cc1c[nH]c2ccccc12)C(=O)N[C@@H](CC(=O)O)C(=O)N[C@@H](CCCNC(=N)N)C(=O)N[C@@H](Cc1ccccc1)C(N)=O [γ1-MSH] | 17 ± 3 nM | Inactive | – | –
C/C=C(/C)C(=O)O[C@H]1C(C)=C2[C@H]([C@@H]1OC(=O)CCCCCCC)[C@@](C)(OC(C)=O)C[C@H](OC(=O)CCC)[C@@]1(O)[C@H]2OC(=O)[C@@]1(C)O [TG, thapsigargin] | – | – | – | effect on γ2-MSH-induced calcium response [1]: prevents; also recorded: blocked the response; effect on FLRFa-induced calcium response [2]: prevents; also recorded: blocked the response
CC(C)C[C@H](NC(=O)[C@@H](N)Cc1ccccc1)C(=O)N[C@@H](Cc1ccccc1)C(=O)N[C@@H](CCC(N)=O)C(=O)N1CCC[C@H]1C(=O)N[C@@H](CCC(N)=O)C(=O)N[C@@H](CCCN=C(N)N)C(=O)N[C@@H](Cc1ccccc1)C(N)=O [NPFF] | – | – | 54 ± 5 nM | EC50 (MrgA1): 2150 nM
COc1ccc2c(c1)CC[C@@H]1[C@@H]2CC[C@]2(C)[C@@H](NCCCCCCN3C(=O)CCC3=O)CC[C@@H]12 [U73343] | – | – | – | effect on γ2-MSH-induced calcium response [1]: did not significantly affect; effect on FLRFa-induced calcium response [2]: did not significantly affect
SGQSWRPQGRF-NH2 [ACEP-1] | 46 ± 12 nM | Inactive | – | –
KHEYLRF-NH2 [AF-2] | – | Inactive | 130 ± 24 nM | –
β-MSH | – | – | – | activation of MrgC11 (in words) (MrgC11; HEK-MrgC11 cells): not activated
N=C(N)NCCC[C@H](NC(=O)CNC(=O)[C@@H]1CCC(=O)N1)C(=O)N[C@@H](Cc1ccccc1)C(N)=O [AnthoRF-amide] ([pGlu]GRF-NH2) | 16 ± 6 nM | Inactive | – | –
N=C(N)NCCC[C@H](N)C(=O)N[C@@H](Cc1ccccc1)C(N)=O [R-Fa] | – | – | 460 ± 35 nM | EC50 MrgA1, nM (MrgA1; [6]): Inactive; EC50 MrgA1, nM (MrgA1; Table 2, chirally modified FMRFa peptides, HEK-MrgA1 cells, mean ± SEM, triplicate, listed as RFa): not able to activate
α-MSH | – | – | – | activation of MrgC11 (in words) (MrgC11; HEK-MrgC11 cells): not activated
CC(C)C[C@H](NC(=O)CNC(=O)[C@H](Cc1ccccc1)NC(=O)[C@H](CO)NC(=O)[C@H](CC(N)=O)NC(=O)[C@H](Cc1c[nH]c2ccccc12)NC(=O)[C@H](CC(N)=O)NC(=O)[C@@H](N)Cc1ccc(O)cc1)C(=O)N[C@@H](CCCNC(=N)N)C(=O)N[C@@H](Cc1ccccc1)C(N)=O [Kiss(112-121)] | 50 ± 4 nM | Inactive | – | –
MPHSFANLPLRF-NH2 [RFRP-1] [listing 1 of 2 here] | 1240 nM | – | – | –
YGGFMRRVGRPEWWMDYQKRYGGFL [BAM3200] | – | – | 300 ± 124 nM | EC50 (MrgA1): > 10000 nM
MPHSFANLPLRF-NH2 [RFRP-1] [listing 2 of 2 here] | – | Inactive | – | –
CSCC[C@H](NC(=O)[C@H](N)Cc1ccccc1)C(=O)N[C@@H](CCCNC(=N)N)C(=O)N[C@@H](Cc1ccccc1)C(N)=O [(D)F-M-R-Fa] | – | – | – | EC50 (MrgA1; [5]): 882 ± 55 nM; EC50 (MrgC11; [7]): 108 ± 1 nM
CSCC[C@H](NC(=O)[C@H](Cc1ccccc1)NC(=O)CNC(=O)CNC(=O)[C@@H](N)Cc1ccc(O)cc1)C(=O)N[C@@H](CCCNC(=N)N)C(=O)N[C@@H](CCCNC(=N)N)C(=O)N[C@H](C(=O)NCC(=O)N[C@@H](CCCNC(=N)N)C(=O)N1CCC[C@H]1C(=O)N[C@@H](CCC(=O)O)C(=O)N[C@@H](Cc1c[nH]c2ccccc12)C(=O)N[C@@H](Cc1c[nH]c2ccccc12)C(=O)N[C@@H](CCSC)C(=O)N[C@@H](CC(=O)O)C(=O)N[C@@H](Cc1ccc(O)cc1)C(=O)N[C@@H](CCC(N)=O)C(=O)N[C@@H](CCCCN)C(=O)N[C@@H](CCCNC(=N)N)C(=O)N[C@@H](Cc1ccc(O)cc1)C(=O)NCC(=O)O)C(C)C [BAM-22P] | – | – | 26 ± 10 nM | EC50 (MrgA1): 2540 nM
YGGFMRF-NH2 [Met-ENK-RFamide] | – | – | 133 ± 20 nM | EC50 (MrgA1): 5250 nM
CSCC[C@@H](NC(=O)[C@@H](N)Cc1ccccc1)C(=O)N[C@@H](CCCNC(=N)N)C(=O)N[C@@H](Cc1ccccc1)C(N)=O [F-(D)M-R-Fa] | – | – | – | EC50 (MrgA1; [5]): 1260 nM; EC50 (MrgC11; [7]): 11 ± 4 nM
IRPKLKWDNQKRYG [Dynnorphin-14] | – | Inactive | 22 ± 1 nM | –
N=C(N)NCCC[C@H](N)C(=O)N[C@@H](Cc1ccccc1)C(=O)O [R-F—OH] | – | – | – | EC50 MrgA1, nM (MrgA1; [6]): Inactive; EC50 MrgA1, nM (MrgA1; Table 2, chirally modified FMRFa peptides, HEK-MrgA1 cells, mean ± SEM, triplicate, listed as RF-OH): not able to activate; EC50 (MrgC11; [7]): 632 ± 124 nM
CC(C)C[C@H](NC(=O)[C@H](CC(N)=O)NC(=O)[C@@H]1CCCN1C(=O)[C@@H](N)C(C)C)C(=O)N1CCC[C@H]1C(=O)N[C@@H](CCC(N)=O)C(=O)N[C@@H](CCCNC(=N)N)C(=O)N[C@@H](Cc1ccccc1)C(N)=O [RFRP-3] | 113 ± 5 nM | Inactive | – | –
CC(C)C[C@H](NC(=O)CNC(=O)[C@H](Cc1ccccc1)NC(=O)[C@H](CO)NC(=O)[C@H](CC(N)=O)NC(=O)[C@H](Cc1c[nH]c2ccccc12)NC(=O)[C@H](CC(N)=O)NC(=O)[C@H](Cc1ccc(O)cc1)NC(=O)[C@H](CC(N)=O)NC(=O)[C@@H]1CCCN1C(=O)[C@H](CC(C)C)NC(=O)[C@H](CC(=O)O)NC(=O)[C@@H](N)CCCCN)C(=O)N[C@@H](CCCNC(=N)N)C(=O)N[C@@H](Cc1ccccc1)C(N)=O [Kiss(107-121)] | 102 ± 24 nM | Inactive | – | –
